Patent publication US20150148538A1, “USE OF AN H4 AGONIST MOLECULE TO TREAT ACUTE LEUKEMIA” (priority 2013, published 2015)

Experiments:
HL60 line = test: Proliferation inhibition of HL60 myeloid leukemia line (cell count or XTT test); type: cell-based; settings: tritoqualine at 10^-5; 3 days with GM-CSF 10 ng/ml; mean of n=3
Procedure: (§1) The myeloid line is represented by the following clonal malignant cells: the HL60 line and the TF1 line. TF1 constitutively expresses the histamine H4 receptor and proliferates in response to GMCSF.
(§2) Tritoqualine, a mixture of 2 enantiomers, has been tested on this line between 10^−5 and 10^−7M with or without CB 10^−5M addition.
(§3) The TF1 line and the HL60 line are represented by inoculates of 100,000 cells in one milliliter incubated for 3 days with GM-CSF (10 ng/ml).
(§4) The reading is done on the third day and the number of cells in the proliferation phase is measured. […] Normally, all of the cells are in the proliferation phase when the cells are stimulated with GMCSF.
(§5) The results are expressed in proliferation inhibition % (n=3): The result is the Mean of the three tests performed.
(§6) The results are expressed in estimated proliferation inhibition % by cell count or by rock proliferation test. This test measures the incorporation of a dye when the cells are proliferating (XTT test).

TF1 line = test: Proliferation inhibition of TF1 myeloid leukemia line (cell count or XTT test); type: cell-based
Procedure: as §1, §2, §3, §4, §5, §6

histamine H4 receptor [1] = molecular target: T1, histamine H4 receptor (Homo sapiens, UniProt Q9H3N8); test: Reversal of tritoqualine effect by a histamine H4 antagonist; type: cell-based; settings: with a histamine H4 antagonist; myeloid cells
T1 sequence (Q9H3N8 whole entry, species assumed): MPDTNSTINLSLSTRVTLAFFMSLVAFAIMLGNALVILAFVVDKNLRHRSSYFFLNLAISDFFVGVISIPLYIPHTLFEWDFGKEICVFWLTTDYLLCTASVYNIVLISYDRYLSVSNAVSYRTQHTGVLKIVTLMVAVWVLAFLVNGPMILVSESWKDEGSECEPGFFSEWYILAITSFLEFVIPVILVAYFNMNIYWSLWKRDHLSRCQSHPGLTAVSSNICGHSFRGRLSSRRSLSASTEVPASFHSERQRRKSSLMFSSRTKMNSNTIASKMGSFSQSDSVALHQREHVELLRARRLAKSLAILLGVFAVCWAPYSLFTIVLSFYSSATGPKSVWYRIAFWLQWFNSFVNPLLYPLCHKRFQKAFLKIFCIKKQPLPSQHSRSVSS
Source text: This appears to indicate that the H4 agonist effect is indeed responsible for the activity of tritoqualine.

Solubility in water = type: physicochemical; settings: including with fetal calf serum added
Source text: We dilute the tritoqualine in dimethyl sulfoxide, also called DMSO.

Pro B line = test: Proliferation inhibition of Pro B lymphoid line (cell count or XTT test); type: cell-based
Procedure: (§7) The lymphoid line is represented by the following clonal malignant cells: the Pre T line and the Pro B line. The cells are cultured using the same technique as the myeloid lines.
(§8) The reading is done on the third day, and the number of cells in the proliferation phase is measured. The ratio between the cells in the proliferation phase and the cells that are not proliferating yields the percentage of cells in inhibition. Normally, all of the cells are in the proliferation phase when the cells are stimulated with GMCSF.
(§9) The results are expressed in proliferation inhibition % (n=3): The result is the Mean of the three tests done.
as §6

histamine H4 receptor [2] = molecular target: T1, histamine H4 receptor; settings: unit not given; cited from earlier work
[3] = white powder; breaks down into Cotarnine and phthalic acid; cited from earlier work
Pre T line = test: Proliferation inhibition of Pre T lymphoid line (cell count or XTT test); type: cell-based
Procedure: as §7, §8, §9, §6

Row | Structure (SMILES) | proliferation inhibition % of HL60 cells (HL60 line) [%] | proliferation inhibition % of TF1 cells (TF1 line; tritoqualine at 10^-5, 3 days with GM-CSF 10 ng/ml, mean of n=3) | effect of a histamine H4 antagonist on the effect of tritoqualine (histamine H4 receptor [1]) | solubility in water (Solubility in water) | blocking of proliferation of Pro B cells (in words) (Pro B line) | proliferation inhibition % of Pro B cells (Pro B line; at 10^-5, reading on third day, mean of n=3, equal to the control without product) [%] | affinity (histamine H4 agonist) (histamine H4 receptor [2]) | sensitivity to light [3] | blocking of proliferation of Pre T cells (in words) (Pre T line) | proliferation inhibition % of Pre T cells (Pre T line; at 10^-5, reading on third day, mean of n=3) | inhibition of proliferation of the myeloid line (in words) (TF1 line; 'this line' (myeloid, TF1), dose of 10^-5M)
1 | CCOc1c(N)c2c(c(OCC)c1OCC)C(C1c3c(cc4c(c3OC)OCO4)CCN1C)OC2=O (centres unmarked) [tritoqualine, (AMINO-7 TRIETHOXY-4,5,6 OXO-1 DIHYDRO-1,3 ISOBENZOFURANNYL-3)-1 METHOXY-8 METHYL-2METHYLENEDIOXY-6,7 TETRAHYDRO-,2,3,4 ISOQUINOLEINE] | ~68 | approximately 58% | inhibits the effect of tritoqualine | low solubility | not | 15 | 10^−6 | very sensitive to light | block the proliferation | approximately 45% | –
2 | NC(=NCc1ccc(Cl)cc1)SCCCc1cnc[nH]1 [Clobenpropit] | – | – | – | – | not | – | 10^−9 | – | block the proliferation | – | inhibits the proliferation
